Results as given in patent publication US6407250B1, “Interphenylene 7-oxabicyclic [2.2.1] heptane oxazoles as prostaglandin F2a antagonists” (Allergan Sales, Inc., priority 2000, dated 2002).

Molecular target: T1, human FP receptor (Homo sapiens, UniProt P43088)
T1 construct: expressed in transfected cells
Assay: Ca2+ signaling: antagonism of the 17-phenyl PGF2α response in HEK cells stably transfected with the human FP receptor
Assay type: cell-based
Conditions: compared with the compound of U.S. Pat. Nos. 5,100,889 and 5,153,327
Experimental: The compound of Example 22 was tested for PGF2αantagonist activity as follows:
HEK cells stably transfected with the human FP receptor were removed from the culture flasks by approximately 1 min treatment with trypsin 0.05%/0.53 mM EDTA in HBSS (Gibco, Grand Island, N.Y.) at 37° C. Proteolytic activity was arrested by adding 5 ml of 10% fetal bovine serum in DMEM. The cells were consecutively washed in Hank's BSS and medium containing 140 mM NaCl, […], 1 mM MgCl2, 1.5 mM CaCl2, 10 mM HEPES: TRIS, 5 mM glucose, 5 mM Na pyruvate, 0.1% bovine serum albumin at pH 7.4: centrifugation for the washes was performed for 15 minutes at 200 g at room temperature. Cells were counted, resuspended in the above medium and incubated with 2×10^−6 M Fura 2/acetoxymethyl ester in a shaking water bath for 30 minutes at 37° C. The cells were subsequently washed in medium as above and resuspended at a concentration of 2×10^6 cells ml^−1. Aliquots of 0.5 ml cell suspension were then added to autocap microtubes to provide 10^6 cells per experimental determination of intracellular free Ca^2+concentration ([Ca^2+]i).
Fluorescence was measured in a Perkin-Elmer LS-5 fluorescence spectrophotometer at excitation and emission wavelengths of 340 and 492 nm, respectively, with both slits at 10 nm. […]

T1 sequence (P43088 whole entry): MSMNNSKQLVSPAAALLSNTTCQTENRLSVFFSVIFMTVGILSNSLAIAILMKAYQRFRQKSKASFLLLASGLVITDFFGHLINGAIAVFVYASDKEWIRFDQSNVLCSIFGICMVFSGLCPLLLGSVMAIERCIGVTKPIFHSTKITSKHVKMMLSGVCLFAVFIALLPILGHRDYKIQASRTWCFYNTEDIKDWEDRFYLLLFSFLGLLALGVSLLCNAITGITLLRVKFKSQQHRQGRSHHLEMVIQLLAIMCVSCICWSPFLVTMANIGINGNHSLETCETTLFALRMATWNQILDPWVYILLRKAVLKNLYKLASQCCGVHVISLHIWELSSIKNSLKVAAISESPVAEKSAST

COC(=O)CCc1ccccc1CC1C2CCC(O2)C1c1nc(C(=O)NCCCCC2CCCCC2)co1 (centres unmarked)
PGF2α antagonist activity (comparison in words): much less active than the corresponding acid

O=C(O)CCc1ccc(F)cc1C[C@@H]1[C@H](c2nc(C(=O)NCCCCC3CCCCC3)co2)[C@H]2CC[C@H]1O2 [Example 22, 3-(2-{(1R, 2R, 3S, 4R)-3-[4-(4-Cyclohexyl-butylcarbamoyl)-oxazol-2-yl]-7-oxa-bicyclo[2.2.1]hept-2-ylmethyl}-4-fluoro-phenyl)-propionic acid]
PGF2α antagonist activity (comparison in words): greater than the compound disclosed in U.S. Pat. Nos. 5,100,889 and 5,153,327
